{"source": "paper PMC4914440", "about": "(Pharmacological research, 2016)", "key": {"[1]": {"target": "T1, 5-HT2A receptor (Homo sapiens, UniProt P28223)", "T1 sequence (P28223 whole entry)": "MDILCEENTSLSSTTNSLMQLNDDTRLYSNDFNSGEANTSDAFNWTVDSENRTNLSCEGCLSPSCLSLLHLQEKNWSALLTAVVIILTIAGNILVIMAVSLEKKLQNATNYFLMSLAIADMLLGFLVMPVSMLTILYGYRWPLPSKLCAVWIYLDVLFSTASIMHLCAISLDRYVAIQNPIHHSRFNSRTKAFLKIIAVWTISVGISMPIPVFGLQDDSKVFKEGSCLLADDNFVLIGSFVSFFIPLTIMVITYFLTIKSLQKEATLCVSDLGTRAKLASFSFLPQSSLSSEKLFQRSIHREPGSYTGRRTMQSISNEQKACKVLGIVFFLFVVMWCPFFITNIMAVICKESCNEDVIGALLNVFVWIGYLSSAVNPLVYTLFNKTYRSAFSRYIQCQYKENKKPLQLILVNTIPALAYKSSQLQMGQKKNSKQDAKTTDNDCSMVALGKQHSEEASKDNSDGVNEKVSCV", "assay": "Intracellular calcium assay of Gq signaling, HEK293 cells", "type": "cell-based", "details": "for agonist efficacy class: intracellular calcium"}, "[2]": {"target": "h5-HT2A (Homo sapiens, UniProt P28223)", "sequence (P28223 whole entry)": "as above"}, "[3]": {"target": "T2, h5-HT2C (Homo sapiens, UniProt P28335)", "T2 sequence (P28335 33-458)": "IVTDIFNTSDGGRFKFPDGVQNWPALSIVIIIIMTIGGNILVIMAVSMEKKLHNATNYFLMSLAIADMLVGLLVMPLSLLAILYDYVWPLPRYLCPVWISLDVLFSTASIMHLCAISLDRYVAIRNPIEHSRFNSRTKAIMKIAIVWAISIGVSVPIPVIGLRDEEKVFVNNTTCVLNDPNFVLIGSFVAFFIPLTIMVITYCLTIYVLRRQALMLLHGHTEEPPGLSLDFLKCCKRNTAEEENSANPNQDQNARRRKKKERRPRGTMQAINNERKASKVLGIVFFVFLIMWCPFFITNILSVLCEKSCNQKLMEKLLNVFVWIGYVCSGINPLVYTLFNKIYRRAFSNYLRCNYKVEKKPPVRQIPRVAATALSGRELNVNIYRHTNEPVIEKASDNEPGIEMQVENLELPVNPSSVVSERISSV", "assay": "Radioligand displacement by a fixed drug concentration, [3H]mesulergine"}, "[4]": {"target": "α1β2γ2 GABAA receptors (Rattus norvegicus, UniProt P18508+P62813+P63138)", "sequence (P62813 28-455)": "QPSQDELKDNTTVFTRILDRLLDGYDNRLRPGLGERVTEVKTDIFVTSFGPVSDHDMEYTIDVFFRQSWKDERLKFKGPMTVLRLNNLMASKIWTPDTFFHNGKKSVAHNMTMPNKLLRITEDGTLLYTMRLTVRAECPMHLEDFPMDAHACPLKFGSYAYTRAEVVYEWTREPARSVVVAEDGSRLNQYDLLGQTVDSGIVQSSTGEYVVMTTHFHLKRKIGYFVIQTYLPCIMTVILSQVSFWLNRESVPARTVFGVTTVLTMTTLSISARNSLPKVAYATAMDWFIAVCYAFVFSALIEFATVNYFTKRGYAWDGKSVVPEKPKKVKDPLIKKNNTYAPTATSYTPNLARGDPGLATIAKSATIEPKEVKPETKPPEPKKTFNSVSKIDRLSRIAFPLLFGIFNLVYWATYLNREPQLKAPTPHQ", "sequence (P63138 26-474)": "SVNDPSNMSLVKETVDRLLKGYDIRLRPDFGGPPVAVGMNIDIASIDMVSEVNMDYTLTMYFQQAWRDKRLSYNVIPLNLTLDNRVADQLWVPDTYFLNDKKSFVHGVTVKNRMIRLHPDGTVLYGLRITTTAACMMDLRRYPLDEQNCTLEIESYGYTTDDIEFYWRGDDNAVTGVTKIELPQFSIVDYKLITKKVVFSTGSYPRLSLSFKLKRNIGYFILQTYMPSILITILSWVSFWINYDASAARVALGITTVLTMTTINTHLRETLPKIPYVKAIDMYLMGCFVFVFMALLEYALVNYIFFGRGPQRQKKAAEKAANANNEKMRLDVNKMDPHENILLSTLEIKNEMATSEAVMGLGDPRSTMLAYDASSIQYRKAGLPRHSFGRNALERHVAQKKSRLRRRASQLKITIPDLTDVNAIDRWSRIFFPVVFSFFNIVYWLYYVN", "sequence (P18508 39-466)": "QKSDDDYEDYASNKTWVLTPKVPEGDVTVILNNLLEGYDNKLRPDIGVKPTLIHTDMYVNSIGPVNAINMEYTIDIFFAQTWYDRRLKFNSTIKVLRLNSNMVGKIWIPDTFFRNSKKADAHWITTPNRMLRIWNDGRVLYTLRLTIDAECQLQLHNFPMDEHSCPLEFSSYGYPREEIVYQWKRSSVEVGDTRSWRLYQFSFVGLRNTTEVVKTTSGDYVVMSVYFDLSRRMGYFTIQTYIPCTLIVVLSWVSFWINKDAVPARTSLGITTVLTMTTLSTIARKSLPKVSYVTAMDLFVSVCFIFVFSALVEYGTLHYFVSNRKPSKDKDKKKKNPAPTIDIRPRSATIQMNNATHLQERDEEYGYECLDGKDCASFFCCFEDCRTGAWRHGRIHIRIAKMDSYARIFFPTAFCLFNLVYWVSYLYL", "assay": "Whole cell electrophysiology, GABA-activated currents, HEK293 cells", "type": "cell-based", "details": "30 μM; for reduction of GABA-activated currents: EC30 GABA (5 μM)"}, "[5]": {"target": "r5-HT6 (Rattus norvegicus, UniProt P31388)", "sequence (P31388 whole entry)": "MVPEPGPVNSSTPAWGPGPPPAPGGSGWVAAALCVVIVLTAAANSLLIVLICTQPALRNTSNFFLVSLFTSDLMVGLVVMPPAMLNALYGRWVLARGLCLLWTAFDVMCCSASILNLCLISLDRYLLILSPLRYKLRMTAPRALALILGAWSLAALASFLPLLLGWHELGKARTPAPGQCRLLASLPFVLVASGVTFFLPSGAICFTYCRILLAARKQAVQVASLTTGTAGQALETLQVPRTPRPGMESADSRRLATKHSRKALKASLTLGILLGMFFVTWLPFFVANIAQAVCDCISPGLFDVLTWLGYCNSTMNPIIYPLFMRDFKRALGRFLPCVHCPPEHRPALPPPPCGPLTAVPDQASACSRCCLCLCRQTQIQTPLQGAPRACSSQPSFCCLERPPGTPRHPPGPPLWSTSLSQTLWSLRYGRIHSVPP", "assay": "Radioligand displacement by a fixed drug concentration, [3H]LSD"}, "[6]": {"details": "cited from earlier work"}, "[7]": {"target": "T1, 5-HT2A receptor", "details": "cloned human 5-HT2A receptor; cited from earlier work"}, "[8]": {"target": "M3 muscarinic receptor (Homo sapiens, UniProt P20309)", "sequence (P20309 whole entry)": "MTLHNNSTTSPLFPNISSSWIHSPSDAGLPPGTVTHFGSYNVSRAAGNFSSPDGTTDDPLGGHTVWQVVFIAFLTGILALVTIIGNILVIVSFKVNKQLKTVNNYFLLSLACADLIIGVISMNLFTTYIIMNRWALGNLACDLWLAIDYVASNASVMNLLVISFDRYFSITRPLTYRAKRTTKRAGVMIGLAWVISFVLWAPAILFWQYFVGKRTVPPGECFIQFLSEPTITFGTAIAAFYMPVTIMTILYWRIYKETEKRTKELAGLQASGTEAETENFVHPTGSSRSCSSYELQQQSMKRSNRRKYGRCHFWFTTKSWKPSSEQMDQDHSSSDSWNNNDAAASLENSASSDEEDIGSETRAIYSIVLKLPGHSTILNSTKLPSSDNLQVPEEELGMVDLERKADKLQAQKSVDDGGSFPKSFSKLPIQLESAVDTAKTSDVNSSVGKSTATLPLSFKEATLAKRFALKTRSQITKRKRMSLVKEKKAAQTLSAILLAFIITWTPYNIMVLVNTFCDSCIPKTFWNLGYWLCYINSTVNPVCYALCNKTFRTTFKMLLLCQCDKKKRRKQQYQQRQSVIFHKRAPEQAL", "assay": "Intracellular calcium assay, untransfected HEK293 cells with endogenous receptor", "type": "cell-based"}, "[9]": {"system": "untransfected CHO cells", "assay": "Intracellular calcium assay, control cells", "type": "cell-based", "details": "data not shown"}, "[10]": {"system": "untransfected HeLa cells", "assay": "cAMP-Glo assay, control cells", "type": "cell-based, human", "details": "efavirenz 30 μM, clozapine 30 μM, 5-HT 1 μM"}, "[11]": {"target": "T3, 5-HT6 receptor (Rattus norvegicus, UniProt P31388)", "T3 sequence (P31388 whole entry)": "as the sequence (P31388 whole entry) above", "assay": "cAMP-Glo assay of Gs signaling, HeLa cells", "type": "cell-based"}, "[12]": {"target": "T3, 5-HT6 receptor", "assay": "Competition radioligand binding, concentration-response"}, "[13]": {"system": "endogenous β-adrenergic receptor", "assay": "cAMP-Glo assay, untransfected HeLa cells stimulated with", "type": "cell-based, human"}}, "note": "Like-named read-outs stand apart in the source and are kept apart here.", "data": [{"smiles": "COc1cc(CC(C)N)c(OC)cc1I", "note": "(racemic) [(±)-DOI]", "values": [{"measurement": "agonist efficacy class", "setting": "[1]", "value": "partial agonists"}]}, {"smiles": "Nc1nc(=O)n([C@@H]2CS[C@H](CO)O2)cc1F", "note": "[FTC]", "values": [{"measurement": "interaction (radioligand displacement)", "setting": "[2]; 10 μM ARV drug, data not shown", "value": "no significant interactions"}, {"measurement": "interaction (radioligand displacement)", "setting": "[2]; 60 μM ARV drug", "value": "only NVP displayed a significant, albeit comparatively weak interaction, with the 5-HT6 receptor"}, {"measurement": "interaction (radioligand displacement)", "setting": "[3]; 10 μM ARV drug, data not shown", "value": "no significant interactions"}, {"measurement": "interaction (radioligand displacement)", "setting": "[3]; 60 μM ARV drug", "value": "only NVP displayed a significant, albeit comparatively weak interaction, with the 5-HT6 receptor"}, {"measurement": "reduction of GABA-activated currents", "setting": "[4]", "value": "36–50 % of control"}, {"measurement": "interaction (radioligand displacement)", "setting": "[5]; 10 μM ARV drug, data not shown", "value": "no significant interactions"}, {"measurement": "interaction (radioligand displacement)", "setting": "[5]; 60 μM ARV drug", "value": "only NVP displayed a significant, albeit comparatively weak interaction, with the 5-HT6 receptor"}]}, {"smiles": "CCN(CC)C(=O)[C@@H]1C=C2c3cccc4[nH]cc(c34)C[C@H]2N(C)C1", "note": "[LSD, Lysergic acid diethylamide]", "values": [{"measurement": "agonist efficacy class", "setting": "[1]", "value": "partial agonists"}, {"measurement": "substitution when efavirenz was the discriminative stimulus", "setting": "[6]", "value": "partially substituted for efavirenz"}]}, {"smiles": "COc1cccc([C@H](O)C2CCN(CCc3ccc(F)cc3)CC2)c1OC", "note": "[MDL100,907]", "values": [{"measurement": "effect of pretreatment on efavirenz substitution for LSD", "setting": "[6]", "value": "this substitution was blocked by pretreatment"}]}, {"smiles": "Cc1ccnc2c1NC(=O)c1cccnc1N2C1CC1", "note": "[NVP]", "values": [{"measurement": "interaction (radioligand displacement)", "setting": "[3]; 10 μM ARV drug, data not shown", "value": "no significant interactions"}, {"measurement": "interaction (radioligand displacement)", "setting": "[3]; 60 μM ARV drug", "value": "only NVP displayed a significant, albeit comparatively weak interaction, with the 5-HT6 receptor"}, {"measurement": "potentiation of GABA-activated currents", "setting": "[4]; co-application with GABA", "value": 8, "unit": "%"}, {"measurement": "interaction (radioligand displacement)", "setting": "[5]; 10 μM ARV drug, data not shown", "value": "no significant interactions"}, {"measurement": "interaction (radioligand displacement)", "setting": "[5]; 60 μM ARV drug", "value": "significant, albeit comparatively weak interaction"}, {"measurement": "affinity lower than for efavirenz", "setting": "[5]; 5-HT6 receptor, estimated", "value": "approximately 30 fold"}]}, {"smiles": "Cc1cn([C@H]2C[C@H](N=[N+]=[N-])[C@@H](CO)O2)c(=O)[nH]c1=O", "note": "[ZDV]", "values": [{"measurement": "interaction (radioligand displacement)", "setting": "[3]; 10 μM ARV drug, data not shown", "value": "no significant interactions"}, {"measurement": "interaction (radioligand displacement)", "setting": "[3]; 60 μM ARV drug", "value": "only NVP displayed a significant, albeit comparatively weak interaction, with the 5-HT6 receptor"}, {"measurement": "reduction of GABA-activated currents", "setting": "[4]", "value": "36–50 % of control"}, {"measurement": "interaction (radioligand displacement)", "setting": "[5]; 10 μM ARV drug, data not shown", "value": "no significant interactions"}, {"measurement": "interaction (radioligand displacement)", "setting": "[5]; 60 μM ARV drug", "value": "only NVP displayed a significant, albeit comparatively weak interaction, with the 5-HT6 receptor"}]}, {"smiles": "CN1CN(c2ccccc2)C2(CCN(CCCC(=O)c3ccc(F)cc3)CC2)C1=O", "note": "[[^3H]MSP, [3H]methylspiperone]", "values": [{"measurement": "Kd", "setting": "[7]", "value": 0.246, "unit": "nM"}]}, {"smiles": "CC(=O)OCC[N+](C)(C)C", "note": "[acetylcholine]", "values": [{"measurement": "receptor activation", "setting": "[8]", "value": "activated"}, {"measurement": "Gq-mediated response", "setting": "[9]", "value": "No Gq-mediated response"}]}, {"smiles": "C[N+](C)(C)CCOC(N)=O", "note": "[carbachol]", "values": [{"measurement": "Gq-mediated response", "setting": "[9]", "value": "No Gq-mediated response"}]}, {"smiles": "CN1CCN(C2=Nc3cc(Cl)ccc3Nc3ccccc32)CC1", "note": "[clozapine]", "values": [{"measurement": "change in cAMP levels", "setting": "[10]", "value": "no significant changes in cAMP levels"}, {"measurement": "effect on 5-HT agonist effect", "setting": "[11]; 30 μM", "value": "completely overcame the agonist effects of 5-HT but also reduced cAMP levels to below basal"}, {"measurement": "effect on basal cAMP", "setting": "[11]; 30 μM", "value": "significantly reduced basal levels of cAMP"}]}, {"smiles": "CN1[C@@H]2C[C@@H](OC(=O)[C@H](CO)c3ccccc3)C[C@H]1[C@@H]1O[C@@H]12", "note": "[scopolamine]", "values": [{"measurement": "block of acetylcholine response", "setting": "[8]", "value": "blocked"}]}, {"smiles": "NCCc1c[nH]c2ccc(O)cc12", "note": "[serotonin, 5-Hydroxytryptamine]", "values": [{"measurement": "change in cAMP levels", "setting": "[10]", "value": "no significant changes in cAMP levels"}, {"measurement": "Ki", "setting": "[12]", "value": "105 ± 8", "unit": "nM"}, {"measurement": "EC50", "setting": "[11]", "value": "12.7 ± 6.2", "unit": "nM"}, {"measurement": "pseudo Hill slope", "setting": "[11]; increase in cAMP", "value": "1.02 ± 0.35"}, {"measurement": "pseudo Hill slope range", "setting": "[1]; across serum conditions", "value": "0.55–0.70"}]}, {"smiles": "CC(C)(C)NC[C@H](O)COc1nsnc1N1CCOCC1", "note": "[timolol]", "values": [{"measurement": "effect on (−)-epinephrine stimulated cAMP response", "setting": "[13]", "value": "blocked"}]}]}
